Experimental data taken from patent US20250333745A1, “METHODS AND COMPOSITIONS FOR TREATMENT OF POLYCYSTIC KIDNEY DISEASE” (Regulus Therapeutics Inc., priority 2016, published 2025).

What was measured:
miR-17 = experiment: microRNA polysome shift assay (miPSA), kidney target engagement; type: in vivo, mouse; parameters: miPSA Score Wild Type Mice / miPSA Score PKD Mice / miPSA displacement score (mean): scale not given here; conditions: for miPSA Kidney AUC (8 hours to 7 days) / Potency Kidney D7: wild-type mice, single s.c. dose 30 mg/kg; for Potency Kidney D7: day 7
Method: (§1) In vivo potency was evaluated using the microRNA polysome shift assay (miPSA). This assay was used to determine the extent to which compounds directly engage the miR-17 target in the kidney in normal and PKD mice. The miPSA relies on the principle that active miRNAs bind to their mRNA targets in translationally active high molecular weight (HMW) polysomes, whereas the inhibited miRNAs reside in the low MW (LMW) polysomes. Treatment with anti-miR results in a shift of the microRNA from HMW polysomes to LMW polysomes. Thus, the miPSA provides a direct measurement of microRNA target engagement by a complementary anti-miR (Androsavich et al., Nucleic Acids Research, 2015, 44: e13).
The miPSA was used to assess the potency of each compound, measured by the displacement score, in wild type and JCK mice. Tissue accumulation of anti-miR-17 compound was measured by extraction of compound using liquid-liquid extraction (LLE) and/or solid-phase extraction (SPE), followed by analysis of the identity and concentration of compound using ion-pairing-reversed-phase high performance liquid chromatography coupled with time-of-flight mass spectrometry (IP—RP-HPLC-TOF).
Wild type mice were administered a single dose of 3 mg/kg for the miPSA analysis, and a single dose of 30 mg/kg for the tissue accumulation analysis. JCK mice were administered a single dose of 30 mg/kg for both the miPSA and tissue accumulation analyses. Kidney tissue was collected seven days following the administration of anti-miR-17 compound. […] A higher kidney-to-liver ratio is generally preferred for a disease where the primary site of action is the kidney.
as §1, with “The” for “In vivo potency was evaluated using the”, “(miPSA),” for “(miPSA). This assay”, “identify” for “determine the extent to which”, “compounds that” for “compounds”, “engage” for “engage the”, “miR-17” for “miR-17 target”
For this experiment, the PKD model selected was the JCK model, a mouse model of slowly progressing renal cystic disease associated with the same gene that causes human nephronophthisis type 9. Renal cysts in this mouse develop in multiple regions of the nephron.
C57BL6 mice were treated with a single, subcutaneous dose of 0.3, 3, and 30 mg/kg of RG4326 or tool anti-miR-17 (described in Example 1). JCK mice were treated with a single, subcutaneous dose of 3, 30, and 100 mg/kg of RG4326 or tool anti-miR-17. PBS treatment was used as an additional control. At seven days post-treatment, mice were sacrificed, and kidney tissue was isolated for the miPSA. […] The displacement scores following treatment with RG4326 were greater than the displacement scores following treatment with the tool anti-miR-17 compound. The data for wild-type mice and JCK mice are also shown in FIG. 3A and FIG. 3B, respectively.
Pharmacokinetic behavior was assessed by administering a single subcutaneous 30 mg/kg dose of RG4326 or tool anti-miR-17 compound to wild-type mice. At one hour, four hours, eight hours, one day, seven days, 14 days, 28 days and 56 days following the single injection, mice were sacrificed and the mean concentration of anti-miR compound in kidney and liver tissue was measured (ug/g) as described above. The area-under-curve (AUC) was calculated for kidney and liver tissue using the formula ug*h/g, where ug is the amount of oligonucleotide in the tissue, h is the timepoint of tissue collection in hours, and g is the weight of the tissue. The ratio of kidney AUC to liver AUC was determined. Kidney tissue was also processed to the miPSA, to determine target engagement for each compound in this study. […]

[1] = Pharmacokinetic profile after single 30 mg/kg subcutaneous dose in wild-type mice; type: in vivo, mouse; conditions: single s.c. dose 30 mg/kg
Method: A full pharmacokinetic profile for selected compounds that have passed multiple screening criteria was obtained in C57BL6 mice. In one study, mice are administered a single subcutaneous injection of anti-miR-17 compound at 30 mg/kg. In another study, mice are administered three subcutaneous injections of anti-miR-17 compound at 39 mg/kg, over a two-month period. In each study, liver and kidney samples are collected at 1 hour, 4 hours, 8 hours, 1 day, 4 days, 7 days, 14 days, 28 days, and 56 days following injections.
Pharmacokinetic behavior was assessed by administering a single subcutaneous 30 mg/kg dose of RG4326 or tool anti-miR-17 compound to wild-type mice. At one hour, four hours, eight hours, one day, seven days, 14 days, 28 days and 56 days following the single injection, mice were sacrificed and the mean concentration of anti-miR compound in kidney and liver tissue was measured (ug/g) as described above. The area-under-curve (AUC) was calculated for kidney and liver tissue using the formula ug*h/g, where ug is the amount of oligonucleotide in the tissue, h is the timepoint of tissue collection in hours, and g is the weight of the tissue. The ratio of kidney AUC to liver AUC was determined. Kidney tissue was also processed to the miPSA, to determine target engagement for each compound in this study. PSA AUC was calculated using the formula Log2FC*h, where Log2FC is the displacement value, h is the timepoint of tissue collection in hours. Potency in the kidney at day 7 was calculated using the formula […] where Log2FC is the displacement value as determined by the miPSA, g is the weight of the kidney tissue, and ug is the amount of anti-miR in the kidney tissue at day seven.

[2] = JCK mice, single subcutaneous 3 mg/kg, kidney, seven days
[3] = JCK mice, single subcutaneous 30 mg/kg, kidney, seven days
[4] = JCK mice, single subcutaneous 100 mg/kg, kidney, seven days
[5] = Normal (C57BL6) mice, single subcutaneous 0.3 mg/kg, kidney, seven days
[6] = Normal (C57BL6) mice, single subcutaneous 3 mg/kg, kidney, seven days
[7] = Normal (C57BL6) mice, single subcutaneous 30 mg/kg, kidney, seven days

Compound	miPSA displacement score (mean) (miR-17; [2])	miPSA displacement score (mean) (miR-17; [3])	miPSA displacement score (mean) (miR-17; [4])	miPSA displacement score (mean) (miR-17; [5])	miPSA displacement score (mean) (miR-17; [6])	miPSA displacement score (mean) (miR-17; [7])	miPSA Kidney AUC (8 hours to 7 days) (miR-17) [Log2FC * h]	Potency Kidney D7 (miR-17) [Log2FC * g/ug]	KAUC/LAUC Ratio [1]	Kidney AUC (one hour to 56 days) [1] [µg·h/g]	Liver AUC (one hour to 56 days) [1] [µg·h/g]	miPSA Score PKD Mice (miR-17; JCK mice, single dose 30 mg/kg, kidney, seven days)	miPSA Score Wild Type Mice (miR-17; wild type mice, single dose 3 mg/kg, kidney, seven days)
5′-CTGCACTGTAAGCACTTTG-3′ (all phosphorothioate, sugars by position and methylation of C not given here; DNA, 2'-MOE and S-cEt sugars) [Tool anti-miR-17, reference compound]	0.97	1.67	2.08	1.51	2.05	2.77	296	0.047	1.0	20711	20275	–	–
COC1C(OP(=O)(S)OC[C@H]2O[C@@H](n3cnc4c(N)ncnc43)C(F)C2OP(=O)(S)OC[C@H]2O[C@@H](n3ccc(N)nc3=O)C(F)C2OP(=O)(S)OC[C@H]2O[C@@H](n3ccc(=O)[nH]c3=O)C(F)C2OP(=O)(S)OC[C@H]2O[C@@H](n3ccc(=O)[nH]c3=O)C(OC)C2OP(=O)(S)OC[C@]23O[C@@H](n4ccc(=O)[nH]c4=O)C(O[C@H]2C)C3OP(=O)(S)OC[C@]23O[C@@H](n4cnc5c(=O)[nH]c(N)nc54)C(O[C@H]2C)C3O)[C@@H](COP(=O)(S)OC2C3O[C@@H](C)[C@]2(COP(=O)(S)OC2C4O[C@@H](C)[C@]2(CO)O[C@H]4n2cnc4c(N)ncnc42)O[C@H]3n2cnc3c(=O)[nH]c(N)nc32)O[C@H]1n1ccc(N)nc1=O (stereo in doubt) [RG4326, ASGSCMAFCFUFUMUSGS]	1.63	2.58	2.73	2.29	2.91	3.19	463	0.351	4.4	5347	1206	2.65	2.63
